Data published in patent US12552748B2, “Pyridine (thio)amides as fungicidal compounds” (Bayer Aktiengesellschaft, priority 2020, dated 2026).
Marks after values point to notes of the source that are not given here.

Test: physchem
Format: physicochemical
Procedure: Measurement of Log P values as provided herein was performed according to EEC directive 79/831 Annex V.A8 by HPLC (High Performance Liquid Chromatography) on reversed phase columns with the following methods: […] If more than one Log P value is available within the same method, all the values are given and separated by “+”. Calibration was done with straight-chain alkan2-ones (with 3 to 16 carbon atoms) with known Log P values (measurement of Log P values using retention times with linear interpolation between successive alkanones). Lambda-max-values were determined using UV-spectra from 200 nm to 400 nm and the peak values of the chromatographic signals
For Cc1ccc(C(F)(F)CNC(=O)c2ccncc2Oc2cccc(C(F)(F)F)c2)c(C)c1 [Compound I-015], the LogP was 3.84^[a]. In the case of Cc1ccc(CONC(=O)c2cc(Cl)ncc2Oc2cccc(C(F)(F)F)c2)c(C)c1 [Compound I-017], the LogP is reported as 4.26^[a]. With Cc1cc(C(=O)NC(C)c2cn(C)c3ccccc23)c(Oc2cccc(C(F)(F)F)c2)cn1 (centres unmarked) [Compound I-020] the LogP was 3.64^[a]. In the case of CC(NC(=O)c1cc(Cl)ncc1Oc1cccc(C(F)(F)F)c1)c1cn(C)c2cc(Cl)ccc12 (centres unmarked) [Compound I-021], the LogP is reported as 4.68^[a]. In the case of CCc1cc(C(=O)NCC(F)c2ccc(F)cc2F)c(Oc2cccc(C(F)(F)F)c2)cn1 (centres unmarked) [Compound I-022], the LogP is reported as 4.66^[a]. For Cc1ccc(C(F)(F)CNC(=O)c2cc(Cl)ncc2Oc2cccc(C(F)(F)F)c2C)c(C)c1 [Compound I-023], the LogP was 5.14^[a]. With O=C(NCC(F)c1ccc(Cl)cc1Cl)c1cc(C2CC2)ncc1Oc1cccc(C(F)(F)F)c1 (centres unmarked) [Compound I-024] the LogP was 4.96^[a]. With Cc1ccc(CCNC(=O)c2cc(Cl)ncc2Oc2cccc(OC(F)(F)F)c2)c(C)c1 [Compound I-025] the LogP was 4.97^[a]. For CCc1cc(C(=O)NCC(F)(F)c2ccc(C)cc2C)c(Oc2cccc(C(F)(F)F)c2)cn1 [Compound I-026], the LogP was 4.58^[a]. For Cc1ccc(CCNC(=O)c2cc(C)ncc2Oc2cccc(C(F)(F)F)c2)c(C)c1 [Compound I-028], the LogP was 4.03^[a]. For C#Cc1ccc(C(F)(F)CNC(=O)c2cc(Cl)ncc2Oc2cccc(C(F)(F)F)c2)c(Cl)c1 [Compound I-029], the LogP was 4.53^[a]. For CCc1cc(C(=O)NCCc2ccc(C)cc2C)c(Oc2cccc(C(F)(F)F)c2)cn1 [Compound I-030], the LogP was 4.49^[a]. For C#Cc1cc(C(=O)NC(C)c2cn(C)c3cc(Cl)ccc23)c(Oc2cccc(C(F)(F)F)c2)cn1 (centres unmarked) [Compound I-031], the LogP was 4.27^[a]. In the case of C#Cc1cc(C(=O)NCC(F)(F)c2ccc(C)cc2C)c(Oc2cccc(C(F)(F)F)c2)cn1 [Compound I-032], the LogP is reported as 4.39^[a]. In the case of Cc1ccc(C(F)(F)CNC(=O)c2cc(C)ncc2Oc2cccc(C(F)(F)F)c2)c(Cl)c1 [Compound I-033], the LogP is reported as 4.19^[a]. For Cc1ccc(C(F)(F)CNC(=O)c2cc(Cl)ncc2Oc2cccc(Cl)c2)c(C)c1 [Compound I-036], the LogP was 4.74^[a]. For Cc1ccc(C(F)(F)CNC(=O)c2cc(Cl)ncc2Oc2cccc(C(F)F)c2)c(C)c1 [Compound I-038], the LogP was 4.35^[a]. For Cc1ccc(CCNC(=O)c2cc(Cl)ncc2Oc2cccc(C(F)F)c2)c(C)c1 [Compound I-039], the LogP was 4.30^[a]. With COc1cccc(Oc2cnc(Cl)cc2C(=O)NCC(F)(F)c2ccc(C)cc2C)c1 [Compound I-042] the LogP was 4.46^[a]. For Cc1cccc(Oc2cnc(Cl)cc2C(=O)NCC(F)(F)c2ccc(C)cc2C)c1 [Compound I-044], the LogP was 4.85^[a]. In the case of Cc1cccc(Oc2cnc(Cl)cc2C(=O)NCCc2ccc(C)cc2C)c1 [Compound I-045], the LogP is reported as 4.84^[a]. For O=C(NCC(F)(F)c1ccc(Br)cc1Cl)c1c(Oc2cccc(C(F)(F)F)c2)cnc(Cl)c1I [Compound I-046], the LogP was 4.96^[a]. In the case of Cc1cccc(Oc2cnc(C)cc2C(=O)NCC(F)(F)c2ccc(C)cc2C)c1 [Compound I-047], the LogP is reported as 4.08^[a]. With COc1cccc(Oc2cnc(Cl)cc2C(=O)NCC(F)(F)c2ccc(C)cc2Cl)c1 [Compound I-048] the LogP was 3.67^[a]. With Cc1ccc(C(F)(F)CNC(=O)c2cc(C)ncc2Oc2cccc(C(F)F)c2)c(C)c1 [Compound I-049] the LogP was 3.73^[a]. In the case of C=C(OCC)c1cc(C(=O)NCCc2ccc(C)cc2C)c(Oc2cccc(C(F)(F)F)c2)cn1 [Compound I-051], the LogP is reported as 4.84^[a]. In the case of Cc1ccc(C(F)(F)CNC(=O)c2cc(C)ncc2Oc2cccc(Cl)c2)c(C)c1 [Compound I-058], the LogP is reported as 4.13^[a]. In the case of Cc1ccc(CCNC(=O)c2cc(C#N)ncc2Oc2cccc(C(F)(F)F)c2)c(C)c1 [Compound I-059], the LogP is reported as 4.39^[a]. With Cc1ccc(C(F)(F)CNC(=O)c2cc(Cl)ncc2Oc2cccc(C3CC3)c2F)c(C)c1 [Compound I-061] the LogP was 5.11^[a]. For Cc1ccc(CCNC(=O)c2cc(Cl)ncc2Oc2cccc(C3CC3)c2F)c(C)c1 [Compound I-062], the LogP was 5.11^[a]. For Cc1ccc(C(F)(F)CNC(=O)c2cc(Cl)ncc2Oc2cccc(C3CC3)c2)c(C)c1 [Compound I-065], the LogP was 5.17^[a]. With O=C(NCC(F)(F)c1ccc(Br)cc1Cl)c1cc(Cl)ncc1Oc1cccc(C2CC2)c1 [Compound I-066] the LogP was 5.36^[a]. In the case of Cc1ccc(C(F)(F)CNC(=O)c2cc(C)ncc2Oc2cccc(Cl)c2)c(Cl)c1 [Compound I-067], the LogP is reported as 4.06^[a]. In the case of Cc1cccc(Oc2cnc(C)cc2C(=O)NCC(F)(F)c2ccc(C)cc2Cl)c1 [Compound I-068], the LogP is reported as 4.06^[a]. In the case of Cc1ccc(C(F)(F)CNC(=O)c2cc(C)ncc2Oc2cccc(C3CC3)c2F)c(C)c1 [Compound I-069], the LogP is reported as 4.46^[a]. With Cc1ccc(C(F)(F)CNC(=O)c2cc(C)ncc2Oc2cccc(C3CC3)c2)c(C)c1 [Compound I-070] the LogP was 4.44^[a]. In the case of Cc1ccc(C(F)(F)CNC(=O)c2cc(C)ncc2Oc2cccc(C3CC3)c2)c(Cl)c1 [Compound I-071], the LogP is reported as 4.39^[a]. In the case of C=Cc1cc(C(=O)NCC(F)(F)c2ccc(C)cc2C)c(Oc2cccc(C3CC3)c2)cn1 [Compound I-072], the LogP is reported as 5.05^[a]. In the case of O=C(NCC(F)(F)c1ccc(C2CC2)cc1Cl)c1cc(Cl)ncc1Oc1cccc(C2CC2)c1F [Compound I-075], the LogP is reported as 5.31^[a]. With Cc1ccc(CCNC(=O)c2cc(N3CCCC3)ncc2Oc2cccc(C(F)(F)F)c2)c(C)c1 [Compound I-088] the LogP was 4.26^[a]. In the case of Cc1ccc(C(F)(F)CNC(=O)c2cc(C)ncc2Oc2cccc(C3CC3)c2F)c(Cl)c1 [Compound I-089], the LogP is reported as 4.47^[a]. For Cc1ccc(C(F)(F)CNC(=O)c2cc(Cl)nc(F)c2Oc2cccc(C(F)(F)F)c2)c(C)c1 [Compound I-092], the LogP was 5.04^[a]. With CO/N=C(\C)c1cc(C(=O)NCCc2ccc(C)cc2C)c(Oc2cccc(C(F)(F)F)c2)cn1 [Compound I-093] the LogP was 5.36^[a]. With CO/N=C(/C)c1cc(C(=O)NCCc2ccc(C)cc2C)c(Oc2cccc(C(F)(F)F)c2)cn1 [Compound I-094] the LogP was 4.85^[a]. With Cc1ccc(CCNC(=O)c2cc(Cl)ncc2Oc2cccc(C(F)(F)F)c2)o1 [Compound I-095] the LogP was 4.05^[a]. In the case of Cc1cnn(CCNC(=O)c2cc(Cl)ncc2Oc2cccc(C(F)(F)F)c2)c1 [Compound I-096], the LogP is reported as 3.14^[a]. With O=C(NCCc1cccs1)c1cc(Cl)ncc1Oc1cccc(C(F)(F)F)c1 [Compound I-097] the LogP was 3.98^[a]. With O=C(NCCn1cc(Cl)cn1)c1cc(Cl)ncc1Oc1cccc(C(F)(F)F)c1 [Compound I-098] the LogP was 3.40^[a]. In the case of O=C(NCCc1ncc(Cl)cn1)c1cc(Cl)ncc1Oc1cccc(C(F)(F)F)c1 [Compound I-099], the LogP is reported as 3.34^[a]. For O=C(NCCc1ccc2[nH]ccc2c1)c1cc(Cl)ncc1Oc1cccc(C(F)(F)F)c1 [Compound I-100], the LogP was 3.71^[a]. With O=C(NCCc1cccc2[nH]ccc12)c1cc(Cl)ncc1Oc1cccc(C(F)(F)F)c1 [Compound I-101] the LogP was 3.71^[a]. In the case of CC(NC(=O)c1cc(Cl)ncc1Oc1cccc(C(F)(F)F)c1)c1ccc(Cl)s1 (centres unmarked) [Compound I-103], the LogP is reported as 4.47^[a]. In the case of O=C(NCCc1ccc2c(c1)CCO2)c1cc(Cl)ncc1Oc1cccc(C(F)(F)F)c1 [Compound I-104], the LogP is reported as 3.98^[a].
